Counter-ions that a name gives are not always drawn.
Tests used:
SB.mhdgc-1 = experiment: AC50 for growth inhibition (viability) (log10 M); higher = less potent; settings: SB.mhdgc-1 (hereditary c.1380delA CDH1 gastric cancer)
Summary of the method: (§1)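 Dosing used a pintool to add 23 nL compound in DMSO to 1536 wells, each with 500 hereditary or sporadic patient-derived gastric cancer cells, across 11 threefold dilutions starting at a final 46 μM. Viability after 48 h was measured by CellTiter-Glo luminescence on a ViewLux. The log half-maximal activity concentration derives from a four-parameter fit of that viability normalised to DMSO, limited to high-quality curve classes.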

SB.msgc-1 = experiment: as above; settings: SB.msgc-1 (sporadic gastric cancer)
Summary of the method: as §1

Structure (SMILES) | AC50 for growth inhibition (log10 M) (SB.mhdgc-1) | AC50 for growth inhibition (log10 M) (SB.msgc-1)
Cn1cnc2c1c(=O)[nH]c(=O)n2C [Theobromine] | -4.63 | -4.78
O=C(NCc1ccccc1)c1csc(Nc2ccncn2)n1 [Thiazovivin] | -4.78 | -4.78
S=P(N1CC1)(N1CC1)N1CC1 [ThioTEPA] | -5.48 | -5.23
NC/1=N/C2=C([NH]C=N2)C(=S)N1 [Tioguanine] | -5.03 | -5.58
C[N]1C=NC=C1[C@@](N)(C2=CC=C(Cl)C=C2)C3=CC=C4N(C)C(=O)\C=C(\C5=CC=CC(=C5)Cl)C4=C3 [Tipifarnib] | -4.83 | -4.83
O=C1NC(=O)[C@@H](c2cn3c4c(cccc24)CCC3)[C@@H]1c1c[nH]c2ccccc12 [Tivantinib] | -6.48 | -6.23
COc1cc2nccc(Oc3ccc(NC(=O)Nc4cc(C)on4)c(Cl)c3)c2cc1OC [Tivozanib] | -5.28 | -5.58
CCOC(=O)N1c2ccc(C(F)(F)F)cc2[C@@H](N(Cc2cc(C(F)(F)F)cc(C(F)(F)F)c2)C(=O)OC)C[C@H]1CC [Torcetrapib] | -4.73 | -5.18
CN(C)CCOc1ccc(/C(=C(/CCCl)c2ccccc2)c2ccccc2)cc1 [Toremifene] | -4.63 | -4.63
CCC(=O)N1CCN(CC1)C2=C(C=C(C=C2)N3C(=O)\C=C/C4=C3C5=CC(=CC=C5N=C4)C6=CN=C7C=CC=CC7=C6)C(F)(F)F [Torin-1] | -6.63 | -5.13
NC1=NC=C(C=C1)C2=CC=C3N=CC\4=C(N(C(=O)\C=C4)C5=CC(=CC=C5)C(F)(F)F)C3=C2 [Torin-2] | -6.48 | -6.78
CC(C)C[C@@H](C(=O)N[C@H](C(=O)OC1CCCC1)c1ccccc1)[C@H](O)C(=O)NO [Tosedostat] | -5.43 | -4.83
CN1C(=O)C(=C/2N(C(=O)N(C3CC3)C(=O)C2=C1/NC4=CC=C(I)C=C4F)C5=CC=CC(=C5)NC(C)=O)\C [Trametinib] | -5.03 | -6.63
CC(/C=C/C(=O)NO)=C\[C@@H](C)C(=O)c1ccc(N(C)C)cc1 [Trichostatin A] | -5.88 | -6.13
OC[C@H]1O[C@H](C[C@@H]1O)N2/C=C(C(=O)NC2=O)/C(F)(F)F [Trifluridine] | -6.48 | -5.78
CC1=CC2=C(O1)C(=C3OC(=O)\C=C(C)/C3=C2)C [Trioxsalen] | -5.38 | -4.93
CC/1=C(\O)C(=O)\C=C2/C1=C/C=C3\[C@@]2(C)CC[C@@]4(C)[C@@H]5C[C@@](C)(CC[C@]5(C)CC[C@]34C)C(O)=O [Tripterin] | -5.58 | -5.78

Structure (SMILES) | AC50 for growth inhibition (log10 M) (SB.mhdgc-1) | AC50 for growth inhibition (log10 M) (SB.msgc-1)
O=C(CCCCCCC(=O)Nc1ccc([C@H]2O[C@@H](CSc3nc(-c4ccccc4)c(-c4ccccc4)o3)C[C@@H](c3ccc(CO)cc3)O2)cc1)NO [Tubacin] | -4.73 | -4.58
CN1CCc2c(c3ccccc3n2Cc2ccc(C(=O)NO)cc2)C1 [Tubastatin A] | -4.63 | -4.68
N#CC(=C(/N)Sc1ccccc1N)/C(C#N)=C(\N)Sc1ccccc1N [U-0126] | -5.88 | -4.73
COc1cc2c(NC3CCN(C(C)C)CC3)nc(C3CCCCC3)nc2cc1OCCCN1CCCC1 [UNC-0638] | -5.58 | -4.78
C[C@@H]1CC[C@@]2(CC[C@]3(C)\C(=C/C[C@@H]4[C@@]5(C)CC[C@H](O)C(C)(C)[C@@H]5CC[C@@]34C)[C@@H]2[C@H]1C)C(O)=O [Ursolic acid] | -4.67 | -4.47
COc1cc2c(Nc3ccc(Br)cc3F)ncnc2cc1OCC1CCN(C)CC1 [Vandetanib] | -4.68 | -4.73
CCCC1=NC(=C2[N]1NC(=N\C2=O)/C3=CC(=CC=C3OCC)[S+]([O-])(=O)N4CCN(CC)CC4)C [Vardenafil] | -4.73 | -4.83
C[C@@H]\1COC(=N1)\NC2=CC3=C(C=C2)N=CN=C3NC4=CC(=C(OCC5=NC=CS5)C=C4)Cl [Varlitinib tosylate] | -6.63 | -6.53
CC(=O)O[C@H]1C[C@@H]2CC[C@@H]3[C@H](CC[C@@]4(C)[C@H]3C[C@H]([N+]3(C)CCCCC3)[C@@H]4OC(C)=O)[C@@]2(C)C[C@@H]1N1CCCCC1 [Vecuronium bromide] | -5.93 | -5.58
COC[C@H](c1ccc(C(F)(F)F)cc1)N1CCN(C2(C)CCN(C(=O)c3c(C)ncnc3C)CC2)C[C@H]1C.O=C(O)/C=C\C(=O)O [Vicriviroc] | -5.33 | -4.78
COC1=CC(=CC=C1)C2=CC=C(NC(=O)/C3=C(/CCC3)C(O)=O)C(=C2)F [Vidofludimus] | -5.33 | -4.88
CCOC(=O)\C1=C\[C@]2(CC)CCCN3CCC4=C([C@H]23)[N]1C5=C4C=CC=C5 [Vinpocetine] | -4.93 | -4.63
Cc1c(O)cccc1C(=O)N[C@@H](CSc1ccccc1)[C@H](O)CN1C[C@H]2CCCC[C@H]2C[C@H]1C(=O)NC(C)(C)C [Viracept] | -4.73 | -4.73
CC[C@@H]1C(=O)N(C)c2cnc(Nc3ccc(C(=O)NC4CCC(N5CCN(CC6CC6)CC5)CC4)cc3OC)nc2N1C(C)C (stereo partly specified) [Volasertib] | -5.08 | -7.03
O=C(CCCCCCC(=O)Nc1ccccc1)NO [Vorinostat] | -5.63 | -5.58
C[C@H](NC(=O)/C(C#N)=C/c1cccc(Br)n1)c1ccccc1 [WP-1066] | -5.43 | -5.48

— the supplement of paper PMC5412046
